The results in this text go back to PubChem BioAssay AID1259407 (Chemical Carcinogenesis Research Information System (CCRIS), 2018).

This data set has as its system CCRIS mutagenicity, Ames/micronucleus/aberration tests. Briefly: CCRIS mutagenicity studies.
[1] abbreviates: Test System: AMES SALMONELLA TYPHIMURIUM, Strain/Indicator: TA100, Metabolic Activation: NONE, Method: PREINCUBATION
Setting [2] is: Test System: AMES SALMONELLA TYPHIMURIUM, Strain/Indicator: TA98, Metabolic Activation: NONE, Method: STANDARD PLATE.
[3] abbreviates: Test System: AMES SALMONELLA TYPHIMURIUM, Strain/Indicator: TA100, Metabolic Activation: NONE, Method: STANDARD PLATE.

Each structure is given as a SMILES string. Calls of active or inactive are those of the source. No rule for the calls is given here.

As for `CCCCCCOCC1CO1` (stereo not drawn), the mutagenic call was “active; positive” under setting [1]; “inactive; negative” (Test System: AMES SALMONELLA TYPHIMURIUM, Strain/Indicator: TA100, Metabolic Activation: RAT, LIVER, S-9, AROCLOR 1254 (10%), Method: PREINCUBATION); “active; positive” (Test System: AMES SALMONELLA TYPHIMURIUM, Strain/Indicator: TA1535, Metabolic Activation: HAMSTER, LIVER, S-9, AROCLOR 1254 (10%), Method: PREINCUBATION); “active; positive” (Test System: AMES SALMONELLA TYPHIMURIUM, Strain/Indicator: TA1535, Metabolic Activation: NONE, Method: PREINCUBATION); “active; positive” (Test System: AMES SALMONELLA TYPHIMURIUM, Strain/Indicator: TA1535, Metabolic Activation: RAT, LIVER, S-9, AROCLOR 1254 (10%), Method: PREINCUBATION).

In the case of `C[C@H]1CCCC(=O)CCC/C=C/c2cc(O)cc(O)c2C(=O)O1`, the mutagenic call (End Point: IN VITRO CHROMOSOMAL ABERRATIONS, Test System: BOVINE LYMPHOCYTES, Metabolic Activation: NONE) was “active; positive (structural changes)”; the mutagenic call (End Point: In vitro chromosomal aberrations, Test System: Green monkey kidney (Vero) cells, Metabolic Activation: None) is “active; positive (structural changes)”; the mutagenic call (End Point: In vitro chromosomal aberrations, Test System: Monkey kidney Vero cells, Metabolic Activation: None) is “active; positive”; the mutagenic call (End Point: In vitro micronucleus, Test System: Green monkey kidney (Vero) cells, Metabolic Activation: None) is “active; positive”; the mutagenic call (End Point: In vivo chromosomal aberrations, Test System: Bone marrow cells, Species: Mouse, Strain/Sex: Balb/C/Female, Route: Oral) is “active; positive (structural changes) (effect diminished by administering clay)”; the mutagenic call (End Point: In vivo chromosomal aberrations, Test System: Bone marrow erythrocytes, Species: Mouse, Strain/Sex: Balb/C, Route: Intraperitoneal) is “active; positive (structural changes)”. Besides, the mutagenic call is “active; positive (effect diminished by administering clay)” (End Point: In vivo micronucleus, Test System: Bone marrow cells, Species: Mouse, Strain/Sex: Balb/C/Female, Route: Oral); “active; positive (p<0.05)” (End Point: In vivo micronucleus, Test System: Bone marrow erythrocytes, Species: Mouse, Strain/Sex: Balb/C, Route: Intraperitoneal); “active; positive. prevented by vitamin e at 25 um” (End Point: UDS Monkey kidney Vero cells, Strain/Indicator: Thymidine incorporation, Metabolic Activation: None, Method: Liquid scintillation counting); “inactive; negative” (Test System: AMES SALMONELLA TYPHIMURIUM, Strain/Indicator: TA98, Metabolic Activation: HAMSTER, LIVER, S-9, AROCLOR 1254, Method: STANDARD PLATE); “inactive; negative” under setting [2]; “inactive; negative” (Test System: AMES SALMONELLA TYPHIMURIUM, Strain/Indicator: TA98, Metabolic Activation: RAT, LIVER, MICROSOMES, PHENOBARBITAL, Method: STANDARD PLATE). Also, the mutagenic call is “inactive; negative” (Test System: AMES SALMONELLA TYPHIMURIUM, Strain/Indicator: TA98, Metabolic Activation: RAT, LIVER, S-9, AROCLOR 1254, Method: STANDARD PLATE); “inactive; negative” (Test System: AMES SALMONELLA TYPHIMURIUM, Strain/Indicator: TA98, Metabolic Activation: RAT, LIVER, S-9, Method: STANDARD PLATE); “inactive; negative” (Test System: AMES SALMONELLA TYPHIMURIUM, Strain/Indicator: TA100, Metabolic Activation: HAMSTER, LIVER, S-9, AROCLOR 1254, Method: STANDARD PLATE); “inactive; negative” under setting [1]; “inactive; negative” (Test System: AMES SALMONELLA TYPHIMURIUM, Strain/Indicator: TA100, Metabolic Activation: RAT, LIVER, MICROSOMES, PHENOBARBITAL, Method: STANDARD PLATE); “inactive; negative” (Test System: AMES SALMONELLA TYPHIMURIUM, Strain/Indicator: TA100, Metabolic Activation: RAT, LIVER, S-9, AROCLOR 1254, Method: STANDARD PLATE). The mutagenic call runs as follows: (Test System: AMES SALMONELLA TYPHIMURIUM, Strain/Indicator: TA100, Metabolic Activation: RAT, LIVER, S-9, PHENOBARBITAL, Method: PREINCUBATION) “inactive; negative”; (Test System: AMES SALMONELLA TYPHIMURIUM, Strain/Indicator: TA100, Metabolic Activation: RAT, LIVER, S-9, Method: STANDARD PLATE) “inactive; negative; toxicity at 1000 ug/plate”; (Test System: AMES SALMONELLA TYPHIMURIUM, Strain/Indicator: TA1535, Metabolic Activation: HAMSTER, LIVER, S-9, AROCLOR 1254, Method: STANDARD PLATE) “inactive; negative”; (Test System: AMES SALMONELLA TYPHIMURIUM, Strain/Indicator: TA1535, Metabolic Activation: NONE, Method: STANDARD PLATE) “inactive; negative”; (Test System: AMES SALMONELLA TYPHIMURIUM, Strain/Indicator: TA1535, Metabolic Activation: RAT, LIVER, S-9, AROCLOR 1254, Method: STANDARD PLATE) “inactive; negative”; (Test System: AMES SALMONELLA TYPHIMURIUM, Strain/Indicator: TA1535, Metabolic Activation: RAT, LIVER, S-9, Method: STANDARD PLATE) “inactive; negative”. Moreover, the mutagenic call is, setting by setting: (Test System: AMES SALMONELLA TYPHIMURIUM, Strain/Indicator: TA1537, Metabolic Activation: HAMSTER, LIVER, S-9, AROCLOR 1254, Method: STANDARD PLATE) “inactive; negative”; (Test System: AMES SALMONELLA TYPHIMURIUM, Strain/Indicator: TA1537, Metabolic Activation: NONE, Method: STANDARD PLATE) “inactive; negative”; (Test System: AMES SALMONELLA TYPHIMURIUM, Strain/Indicator: TA1537, Metabolic Activation: RAT, LIVER, S-9, AROCLOR 1254, Method: STANDARD PLATE) “inactive; negative”; (Test System: AMES SALMONELLA TYPHIMURIUM, Strain/Indicator: TA1537, Metabolic Activation: RAT, LIVER, S-9, Method: STANDARD PLATE) “inactive; negative; toxicity at 500 and 1000 ug/plate”; (Test System: AMES SALMONELLA TYPHIMURIUM, Strain/Indicator: TA1538, Metabolic Activation: HAMSTER, LIVER, S-9, AROCLOR 1254, Method: STANDARD PLATE) “inactive; negative”; (Test System: AMES SALMONELLA TYPHIMURIUM, Strain/Indicator: TA1538, Metabolic Activation: RAT, LIVER, S-9, AROCLOR 1254, Method: STANDARD PLATE) “inactive; negative”. Under “Test System: AMES SALMONELLA TYPHIMURIUM, Strain/Indicator: TA1538, Metabolic Activation: RAT, LIVER, S-9, Method: STANDARD PLATE”, the mutagenic call is “inactive; negative; toxicity at 1000 ug/plate”.

As for `CC(C)(C)C1CCC2(CC1)CO2` (stereo not drawn), under setting [3], the mutagenic call was “inactive; negative”.

For the molecule `CC(=O)ON(OCc1ccc(C(C)(C)C)cc1)C(=O)c1ccccc1`, the mutagenic call under setting [3] was “active; positive”.

As to `Cc1cncc(C)c1.Cc1cncc(C)c1.[Cl][Pt][Cl]`, the mutagenic call by setting is: (Test System: AMES SALMONELLA TYPHIMURIUM, Strain/Indicator: TA92, Metabolic Activation: NONE, Method: STANDARD PLATE) “inactive; negative”; under setting [2], “active; positive”; under setting [3], “inactive; negative”; (Test System: AMES SALMONELLA TYPHIMURIUM, Strain/Indicator: TA2410, Metabolic Activation: NONE, Method: STANDARD PLATE) “active; positive”.

For the molecule `BrCc1cccc2c1-c1cccc3cccc-2c13`, the mutagenic call runs as follows: under setting [2], “active; positive”; under setting [3], “active; positive”.

In the case of `Clc1ccc2c(c1)oc1ccccc12`, the mutagenic call under setting [2] was “active; positive”; the mutagenic call (Test System: AMES SALMONELLA TYPHIMURIUM, Strain/Indicator: TA98, Metabolic Activation: RAT, LIVER, S-9, PHENOBARBITAL AND NAPHTHOFLAVONE, Method: STANDARD PLATE) was “active; positive”; the mutagenic call under setting [3] is “active; positive”; the mutagenic call (Test System: AMES SALMONELLA TYPHIMURIUM, Strain/Indicator: TA100, Metabolic Activation: RAT, LIVER, S-9, PHENOBARBITAL AND NAPHTHOFLAVONE, Method: STANDARD PLATE) was “active; positive”.
